From article doi:10.1101/2023.11.24.568596v1 (biorxiv, 2023)
Blank lines part the entries; values can stand above or below the compound they belong to.

What was measured:
Conditions in all cases: binder
BRPF1 = biological target: T1, BRPF1 (Homo sapiens, UniProt P55201)
T1 sequence (P55201 1-1214): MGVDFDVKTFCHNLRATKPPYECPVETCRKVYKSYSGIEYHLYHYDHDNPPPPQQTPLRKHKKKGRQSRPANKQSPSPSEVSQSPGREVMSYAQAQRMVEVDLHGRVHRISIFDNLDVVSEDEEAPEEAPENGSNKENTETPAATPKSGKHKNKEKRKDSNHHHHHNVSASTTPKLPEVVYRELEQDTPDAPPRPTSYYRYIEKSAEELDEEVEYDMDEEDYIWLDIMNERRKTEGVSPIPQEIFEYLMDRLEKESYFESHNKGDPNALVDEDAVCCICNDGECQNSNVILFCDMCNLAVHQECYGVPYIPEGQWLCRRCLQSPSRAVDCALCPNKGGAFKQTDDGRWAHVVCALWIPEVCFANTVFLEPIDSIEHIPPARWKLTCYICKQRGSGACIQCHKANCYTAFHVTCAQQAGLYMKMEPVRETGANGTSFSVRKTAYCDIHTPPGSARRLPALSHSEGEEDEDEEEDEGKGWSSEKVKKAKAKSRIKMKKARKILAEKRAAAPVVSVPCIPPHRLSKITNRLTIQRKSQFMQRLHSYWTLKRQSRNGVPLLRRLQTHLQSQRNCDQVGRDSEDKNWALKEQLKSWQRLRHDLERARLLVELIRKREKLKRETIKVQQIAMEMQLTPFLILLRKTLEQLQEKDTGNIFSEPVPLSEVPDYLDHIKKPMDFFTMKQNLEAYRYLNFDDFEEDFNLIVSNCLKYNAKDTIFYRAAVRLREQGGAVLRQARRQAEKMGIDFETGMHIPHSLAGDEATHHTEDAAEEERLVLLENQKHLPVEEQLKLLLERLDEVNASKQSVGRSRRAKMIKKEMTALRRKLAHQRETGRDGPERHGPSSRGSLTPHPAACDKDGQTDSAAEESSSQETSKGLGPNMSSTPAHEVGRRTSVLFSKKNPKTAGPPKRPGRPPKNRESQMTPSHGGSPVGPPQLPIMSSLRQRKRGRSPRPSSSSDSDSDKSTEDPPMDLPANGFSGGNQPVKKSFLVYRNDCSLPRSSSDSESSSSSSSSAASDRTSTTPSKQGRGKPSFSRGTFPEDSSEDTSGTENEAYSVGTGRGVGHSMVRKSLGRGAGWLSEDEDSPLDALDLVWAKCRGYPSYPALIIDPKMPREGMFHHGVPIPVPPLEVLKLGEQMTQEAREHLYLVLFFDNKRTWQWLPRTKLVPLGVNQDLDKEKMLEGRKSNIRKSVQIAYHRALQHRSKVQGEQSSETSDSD

CK2a2 = CK2a2 (Homo sapiens, UniProt P19784)
DAPK3 = DAPK3 (Homo sapiens, UniProt O43293)
EphB1 = biological target: T2, EphB1 (Homo sapiens, UniProt P54762)
T2 sequence (P54762 1-984): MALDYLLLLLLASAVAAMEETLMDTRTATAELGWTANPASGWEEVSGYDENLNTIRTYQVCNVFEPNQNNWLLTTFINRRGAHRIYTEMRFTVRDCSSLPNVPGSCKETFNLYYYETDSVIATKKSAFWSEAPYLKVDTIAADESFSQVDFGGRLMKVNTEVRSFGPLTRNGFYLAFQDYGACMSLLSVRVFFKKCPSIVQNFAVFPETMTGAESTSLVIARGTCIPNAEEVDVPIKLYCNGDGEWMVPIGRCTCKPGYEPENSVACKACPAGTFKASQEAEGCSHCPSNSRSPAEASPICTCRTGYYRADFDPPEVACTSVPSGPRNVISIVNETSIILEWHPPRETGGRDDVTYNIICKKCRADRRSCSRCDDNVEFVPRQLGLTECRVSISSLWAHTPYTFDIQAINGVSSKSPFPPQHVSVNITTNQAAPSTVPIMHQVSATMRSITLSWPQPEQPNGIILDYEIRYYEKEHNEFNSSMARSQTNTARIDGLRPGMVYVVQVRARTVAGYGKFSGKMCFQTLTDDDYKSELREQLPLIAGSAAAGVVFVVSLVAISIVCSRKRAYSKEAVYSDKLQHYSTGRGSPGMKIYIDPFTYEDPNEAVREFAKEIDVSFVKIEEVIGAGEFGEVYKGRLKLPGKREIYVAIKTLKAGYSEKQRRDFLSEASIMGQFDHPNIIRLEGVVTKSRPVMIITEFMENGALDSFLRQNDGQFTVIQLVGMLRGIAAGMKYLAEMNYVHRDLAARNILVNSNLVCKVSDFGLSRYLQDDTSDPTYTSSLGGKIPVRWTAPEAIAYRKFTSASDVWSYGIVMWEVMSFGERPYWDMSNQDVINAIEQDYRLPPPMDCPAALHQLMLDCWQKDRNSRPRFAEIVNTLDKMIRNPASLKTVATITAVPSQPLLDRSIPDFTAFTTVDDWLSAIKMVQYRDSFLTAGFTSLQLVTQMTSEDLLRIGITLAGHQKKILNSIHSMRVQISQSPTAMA

HIPK2 = HIPK2 (Homo sapiens, UniProt Q9H2X6)
MSSK1 = MSSK1 (Homo sapiens, UniProt Q9UPE1)
VRK1 = biological target: T3, VRK1 (Homo sapiens, UniProt Q99986)
T3 sequence (Q99986 1-396): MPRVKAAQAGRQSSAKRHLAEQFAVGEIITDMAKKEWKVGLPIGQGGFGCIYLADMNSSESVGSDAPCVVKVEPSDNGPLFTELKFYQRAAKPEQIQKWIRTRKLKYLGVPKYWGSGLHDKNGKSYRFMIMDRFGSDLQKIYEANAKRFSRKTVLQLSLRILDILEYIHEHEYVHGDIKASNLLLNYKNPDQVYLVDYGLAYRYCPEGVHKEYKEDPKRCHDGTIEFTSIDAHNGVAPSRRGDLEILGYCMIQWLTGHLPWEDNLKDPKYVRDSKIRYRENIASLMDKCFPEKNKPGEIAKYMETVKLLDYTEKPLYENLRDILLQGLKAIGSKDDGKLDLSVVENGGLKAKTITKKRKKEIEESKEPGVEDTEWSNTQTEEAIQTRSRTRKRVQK

Chain of MSSK1 (Q9UPE1 whole entry): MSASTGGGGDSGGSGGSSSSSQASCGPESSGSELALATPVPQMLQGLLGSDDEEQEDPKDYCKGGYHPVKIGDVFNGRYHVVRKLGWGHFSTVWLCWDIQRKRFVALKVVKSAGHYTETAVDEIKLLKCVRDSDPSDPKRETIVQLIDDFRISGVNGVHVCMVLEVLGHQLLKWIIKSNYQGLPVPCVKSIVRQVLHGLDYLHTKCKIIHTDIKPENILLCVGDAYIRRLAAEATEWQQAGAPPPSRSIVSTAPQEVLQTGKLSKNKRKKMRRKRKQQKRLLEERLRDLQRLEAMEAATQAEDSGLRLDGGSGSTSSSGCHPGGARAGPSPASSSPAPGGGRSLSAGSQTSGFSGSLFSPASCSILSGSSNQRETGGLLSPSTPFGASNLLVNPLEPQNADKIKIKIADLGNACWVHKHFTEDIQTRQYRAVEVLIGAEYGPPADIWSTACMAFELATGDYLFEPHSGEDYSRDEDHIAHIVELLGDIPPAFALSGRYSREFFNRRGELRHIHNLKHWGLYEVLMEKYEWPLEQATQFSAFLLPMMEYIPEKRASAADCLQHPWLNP
Chain of DAPK3 (O43293 whole entry): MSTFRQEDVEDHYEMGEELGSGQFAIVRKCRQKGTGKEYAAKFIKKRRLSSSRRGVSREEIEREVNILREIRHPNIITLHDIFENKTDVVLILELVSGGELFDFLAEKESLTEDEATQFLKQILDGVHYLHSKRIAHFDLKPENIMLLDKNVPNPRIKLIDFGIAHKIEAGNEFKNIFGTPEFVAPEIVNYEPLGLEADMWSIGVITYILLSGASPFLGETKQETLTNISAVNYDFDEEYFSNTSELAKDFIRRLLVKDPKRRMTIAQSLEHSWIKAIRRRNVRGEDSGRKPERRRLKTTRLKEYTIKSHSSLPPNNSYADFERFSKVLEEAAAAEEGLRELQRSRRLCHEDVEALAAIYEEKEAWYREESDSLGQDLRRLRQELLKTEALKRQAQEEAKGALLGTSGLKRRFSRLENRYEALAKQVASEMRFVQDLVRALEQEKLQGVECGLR
Chain of CK2a2 (P19784 whole entry): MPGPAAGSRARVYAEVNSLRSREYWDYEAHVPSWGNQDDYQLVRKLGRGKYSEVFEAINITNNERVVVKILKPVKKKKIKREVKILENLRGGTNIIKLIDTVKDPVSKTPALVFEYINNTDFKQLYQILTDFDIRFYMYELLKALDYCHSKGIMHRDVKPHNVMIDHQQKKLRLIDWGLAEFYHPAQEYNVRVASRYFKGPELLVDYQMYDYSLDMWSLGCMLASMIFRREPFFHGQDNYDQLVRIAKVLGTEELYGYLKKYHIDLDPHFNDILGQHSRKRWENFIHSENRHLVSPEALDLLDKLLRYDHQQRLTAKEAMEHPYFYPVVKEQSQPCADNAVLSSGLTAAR
Chain of HIPK2 (Q9H2X6 whole entry): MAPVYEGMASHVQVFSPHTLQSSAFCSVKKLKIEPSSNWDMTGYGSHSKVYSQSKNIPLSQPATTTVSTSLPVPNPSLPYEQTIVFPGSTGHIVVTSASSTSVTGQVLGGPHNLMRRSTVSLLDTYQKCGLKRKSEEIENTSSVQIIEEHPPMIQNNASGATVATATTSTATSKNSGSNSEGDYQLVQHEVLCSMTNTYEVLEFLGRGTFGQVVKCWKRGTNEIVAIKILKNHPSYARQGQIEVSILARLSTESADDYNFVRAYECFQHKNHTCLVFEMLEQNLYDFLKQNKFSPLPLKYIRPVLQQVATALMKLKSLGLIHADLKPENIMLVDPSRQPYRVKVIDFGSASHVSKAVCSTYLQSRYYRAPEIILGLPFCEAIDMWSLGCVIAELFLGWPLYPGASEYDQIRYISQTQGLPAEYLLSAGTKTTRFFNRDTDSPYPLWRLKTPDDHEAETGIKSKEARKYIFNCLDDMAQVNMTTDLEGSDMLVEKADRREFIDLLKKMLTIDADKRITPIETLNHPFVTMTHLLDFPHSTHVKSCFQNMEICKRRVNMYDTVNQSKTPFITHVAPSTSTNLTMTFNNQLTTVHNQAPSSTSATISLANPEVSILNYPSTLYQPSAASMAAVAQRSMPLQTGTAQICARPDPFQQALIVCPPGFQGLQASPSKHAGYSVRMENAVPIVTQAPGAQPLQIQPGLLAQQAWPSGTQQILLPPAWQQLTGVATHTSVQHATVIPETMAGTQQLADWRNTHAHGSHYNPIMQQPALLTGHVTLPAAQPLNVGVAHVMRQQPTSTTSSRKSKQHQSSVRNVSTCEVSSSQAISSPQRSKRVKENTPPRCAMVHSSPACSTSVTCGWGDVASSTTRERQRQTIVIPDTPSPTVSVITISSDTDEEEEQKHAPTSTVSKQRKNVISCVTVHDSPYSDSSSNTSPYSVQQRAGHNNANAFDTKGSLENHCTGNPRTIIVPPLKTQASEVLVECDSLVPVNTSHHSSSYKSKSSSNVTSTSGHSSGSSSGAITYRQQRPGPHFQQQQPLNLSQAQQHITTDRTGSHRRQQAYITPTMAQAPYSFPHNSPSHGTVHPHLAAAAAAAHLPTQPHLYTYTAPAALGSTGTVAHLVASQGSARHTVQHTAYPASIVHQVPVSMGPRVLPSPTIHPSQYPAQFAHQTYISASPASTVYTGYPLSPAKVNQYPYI

- dTm 33 (BRPF1): -2.7 °C
- dTm 33 (CK2a2): -1.2 °C
- dTm 33 (DAPK3): 1.9 °C
- dTm 33 (EphB1): 6.5 °C
- dTm 33 (HIPK2): 2.0 °C
- dTm 33 (MSSK1): -0.4 °C
- dTm 33 (VRK1): 0.4 °C
Structure (SMILES): Cc1cccc(-c2ccc(-c3cc4cnc(Nc5ccc(F)c(CO)c5)nc4n(CCCCN)c3=O)c(Cl)c2)n1 [compound 33, 8-(4-Aminobutyl)-6-(2-chloro-4-(6-methylpyridin-2-yl)phenyl)-2-((4-fluoro-3-(hydroxymethyl)phenyl)amino)pyrido[2,3-d]pyrimidin-7(8H)-one]

- dTm 34 (BRPF1): -1.6 °C
- dTm 34 (CK2a2): 0.1 °C
- dTm 34 (DAPK3): 1.5 °C
- dTm 34 (EphB1): 5.2 °C
- dTm 34 (HIPK2): 0.5 °C
- dTm 34 (MSSK1): 0.4 °C
- dTm 34 (VRK1): 0.0 °C
Structure (SMILES): COc1ccc(O)c(Nc2ncc3cc(-c4ccc(-c5cccc(C)n5)cc4Cl)c(=O)n(CCCCN)c3n2)c1 [compound 34, 8-(4-Aminobutyl)-6-(2-chloro-4-(6-methylpyridin-2-yl)phenyl)-2-((2-hydroxy-5-methoxy-phenyl)amino)pyrido[2,3-d]pyrimidin-7(8H)-one]

- dTm 35 (BRPF1): -2.8 °C
- dTm 35 (CK2a2): 0.1 °C
- dTm 35 (DAPK3): 3.2 °C
- dTm 35 (EphB1): 6.0 °C
- dTm 35 (HIPK2): 0.1 °C
- dTm 35 (MSSK1): -0.2 °C
- dTm 35 (VRK1): -0.2 °C
Structure (SMILES): COc1cc(N2CCOCC2)ccc1Nc1ncc2cc(-c3ccc(-c4cccc(C)n4)cc3Cl)c(=O)n(CCCCN)c2n1 [compound 35, 8-(4-Aminobutyl)-6-(2-chloro-4-(6-methylpyridin-2-yl)phenyl)-2-((2-methoxy-4-morpholino-phenyl)amino)pyrido[2,3-d]pyrimidin-7(8H)-one]

- dTm 36 (BRPF1): -1.2 °C
- dTm 36 (CK2a2): -0.5 °C
- dTm 36 (DAPK3): 1.6 °C
- dTm 36 (EphB1): 5.5 °C
- dTm 36 (HIPK2): 0.3 °C
- dTm 36 (MSSK1): 0.0 °C
- dTm 36 (VRK1): 0.1 °C
Structure (SMILES): COc1cc(N2CCN(C)CC2)ccc1Nc1ncc2cc(-c3ccc(-c4cccc(C)n4)cc3Cl)c(=O)n(CCCCN)c2n1 [compound 36, 8-(4-Aminobutyl)-6-(2-chloro-4-(6-methylpyridin-2-yl)phenyl)-2-((2-methoxy-4-(4-methylpiperazin-1-yl)phenyl)amino)pyrido[2,3-d]pyrimidin-7(8H)-one]
